Source: patent publication US6083956A, “Optically pure androgen mediator” (Pfizer Inc., priority 1999, dated 2000)
pIC50: −log10 of the molar value. Read-outs that look alike come from different tables or passages of the source.

Molecular target: T1, recombinant human androgen receptor (hAR) (Homo sapiens, UniProt P10275)
T1 construct: made in house; host or cells: Sf9 insect cells (baculovirus)
Test: Human Androgen Receptor Binding Analysis (competitive binding vs 3H-dihydrotestosterone)
Conditions: 1 nM 3H-DHT tracer, hydroxylapatite, one hour at 4° C

[1] = hAR Binding IC50, baculovirus/Sf9 generated hAR extract

T1 sequence (P10275 whole entry): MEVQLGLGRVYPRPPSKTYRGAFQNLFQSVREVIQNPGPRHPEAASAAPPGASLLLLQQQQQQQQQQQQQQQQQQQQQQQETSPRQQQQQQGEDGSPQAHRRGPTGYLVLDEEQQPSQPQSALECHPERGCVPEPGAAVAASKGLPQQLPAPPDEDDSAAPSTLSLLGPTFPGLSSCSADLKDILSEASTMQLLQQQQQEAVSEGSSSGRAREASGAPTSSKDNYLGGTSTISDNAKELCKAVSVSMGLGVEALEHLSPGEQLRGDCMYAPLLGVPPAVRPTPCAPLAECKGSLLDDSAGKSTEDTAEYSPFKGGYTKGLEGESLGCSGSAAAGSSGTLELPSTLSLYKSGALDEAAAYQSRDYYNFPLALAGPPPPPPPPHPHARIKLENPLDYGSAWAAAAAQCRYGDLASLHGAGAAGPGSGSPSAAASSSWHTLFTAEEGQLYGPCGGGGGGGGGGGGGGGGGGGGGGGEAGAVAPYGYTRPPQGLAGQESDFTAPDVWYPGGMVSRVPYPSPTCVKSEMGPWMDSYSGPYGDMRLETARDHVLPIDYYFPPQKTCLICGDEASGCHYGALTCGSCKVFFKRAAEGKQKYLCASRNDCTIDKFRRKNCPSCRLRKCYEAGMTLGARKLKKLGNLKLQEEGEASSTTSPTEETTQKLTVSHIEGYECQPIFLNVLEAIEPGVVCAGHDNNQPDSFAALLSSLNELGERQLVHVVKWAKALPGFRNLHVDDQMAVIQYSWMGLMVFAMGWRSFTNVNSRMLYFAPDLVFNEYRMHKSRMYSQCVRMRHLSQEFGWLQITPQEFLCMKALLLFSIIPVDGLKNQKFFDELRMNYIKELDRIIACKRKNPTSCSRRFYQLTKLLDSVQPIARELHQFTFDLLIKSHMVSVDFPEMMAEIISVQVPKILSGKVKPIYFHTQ
Experimental: The following is a brief description of the assay that determines the affinity of a compound for the recombinant human androgen receptor (hAR). Competitive binding analysis is performed on baculovirus/Sf9 generated hAR extracts in the presence or absence of differing concentrations of drug and a fixed concentration of ^3 H-dihydrotestosterone (^3 H-DHT) as tracer. […] Briefly, progressively decreasing concentrations of compounds are incubated in the presence of hAR extract (Chang et al. P.N.A.S. Vol. 89, pp. 5546-5950, 1992), hydroxylapatite and 1 nM ^3 H-DHT for one hour at 4° C. Subsequently, the binding reactions are washed three times to completely remove excess unbound ^3 H-DHT. hAR bound.
^3 H-DHT levels are determined in the presence of compounds (=competitive binding) and compared to levels bound when no competitor is present (=maximum binding). Compound binding affinity to the hAR is expressed as the concentration of compound at which one half of the maximum binding is inhibited.

| Compound | pIC50 (baculovirus/Sf9 generated hAR extract, read-out: hAR Binding IC50) | pIC50 [1] |
| --- | --- | --- |
| CCC1CCNc2cc3oc(=O)cc(C(F)(F)F)c3cc21 (racemic) [Racemate (±), Racemic 5-ethyl-4-trifluoromethyl-5,6,7,8-tetrahydro-1-oxa-8-aza-anthracen-2-one, reference compound] | 7.46 |  |
| CCC1CCNc2cc3oc(=O)cc(C(F)(F)F)c3cc21 (single isomer, unassigned; (-)) [(-) Enantiomer, (-)-5-ethyl-4-trifluoromethyl-5,6,7,8-tetrahydro-1-oxa-8-aza-anthracen-2-one] |  | 8.30 |
| CCC1CCNc2cc3oc(=O)cc(C(F)(F)F)c3cc21 (single isomer, unassigned; (+)) [(+) Enantiomer, (+)-5-Ethyl-4-trifluoromethyl-5,6,7,8-tetrahydro-1-oxa-8-aza-anthracen-2-one] |  | 6.95 |
